{
  "source": "patent US20250361486A1",
  "about": "“METHOD FOR CULTURING CELLS REQUIRING A SUPPLY OF IRON” (SAFI BIOTHERAPEUTICS INC., priority 2022, published 2025)",
  "key": {"cultured red blood cells [1]": {"test_system": "cultured red blood cells", "experiment": "Cell losses at end of red blood cell perfusion culture", "type": "cell-based", "details": "Trolox approximately 100 μM in culture medium, perfusion bioreactor step D7 to D22; average of 6 cultures; 13% loss without Trolox", "procedure": "(§1) Cultured red blood cell production was performed with and without the addition of Trolox during the perfusion bioreactor culture step of the process described below.\n(§2) Briefly, the cells cultured according to the invention are total nucleated cells collected by cytapheresis from volunteer donors previously mobilised with G-CSF.\n(§3) A first step of the process according to the invention is carried out over 7 days (from D1 to D7) in fed-batch at a temperature of 37° C., under an atmosphere of 5% CO2 and in a culture medium adapted from that described by Giarratana et al. (2011) “Proof of principle for transfusion of in vitro-generated red blood cells”, Blood 118:5071-5079 for the first step of the expansion procedure described in the article (page 5072). Halfway through this step, fresh culture medium is added to the culture so as to dilute the culture by half (the same volume of culture medium is added as the volume initially present). […]\nFifteen cultures were performed (9 without Trolox and 6 with Trolox) and cell losses were measured at the end of the culture, defined as the % decrease in cell concentration between the peak cell concentration and the day the culture was stopped (2 to 3 days later)."}, "cultured red blood cells [2]": {"test_system": "cultured red blood cells", "experiment": "Preservation yield of cultured red blood cells after 28 days in a preservation solution", "type": "cell-based", "details": "culture conducted with Trolox approximately 100 μM; red blood cells stored for 28 days in a preservation solution; 63% without Trolox", "procedure": "as §1, §2, §3\nFurthermore, the red blood cells from the above cultures were stored for 28 days in a preservation solution and the preservation efficiency at the end of the preservation period was determined [100×(final red blood cell count/mL)/(initial red blood cell count/mL]."}},
  "data": [
    {"compound": "Cc1c(C)c2c(c(C)c1O)CCC(C)(C(=O)O)O2", "note": "(centres unmarked) [Trolox, 3,4-dihydro-6-hydroxy-2,5,7,8-tetramethyl-2H-I-benzopyran-2-carboxylic acid]", "values": [
      {"measurement": "cell losses at the end of culture (% decrease in cell concentration between peak cell concentration and day culture was stopped)", "setting": "cultured red blood cells [1]", "result": 6, "unit": "%"},
      {"measurement": "average conservation yield [100×(final red blood cell count/mL)/(initial red blood cell count/mL)]", "setting": "cultured red blood cells [2]", "result": 77, "unit": "%"}
    ]}
  ]
}
